ChEMBL document CHEMBL2073753, “Steroid and bile acid conjugates are substrates of human multidrug-resistance protein (MRP) 4 (ATP-binding cassette C4)” (Biochem J, 2003)

Experiments:
[1] = biological target: T1, ATP-binding cassette sub-family C member 4 (Homo sapiens, UniProt O15439); test: TP_TRANSPORTER: inhibition of E217betaG uptake in membrane vesicles from MRP4-expressing HEK-293 cells; assay type: functional, cell membranes, HEK293, Membrane vesicle
T1 sequence (O15439 whole entry): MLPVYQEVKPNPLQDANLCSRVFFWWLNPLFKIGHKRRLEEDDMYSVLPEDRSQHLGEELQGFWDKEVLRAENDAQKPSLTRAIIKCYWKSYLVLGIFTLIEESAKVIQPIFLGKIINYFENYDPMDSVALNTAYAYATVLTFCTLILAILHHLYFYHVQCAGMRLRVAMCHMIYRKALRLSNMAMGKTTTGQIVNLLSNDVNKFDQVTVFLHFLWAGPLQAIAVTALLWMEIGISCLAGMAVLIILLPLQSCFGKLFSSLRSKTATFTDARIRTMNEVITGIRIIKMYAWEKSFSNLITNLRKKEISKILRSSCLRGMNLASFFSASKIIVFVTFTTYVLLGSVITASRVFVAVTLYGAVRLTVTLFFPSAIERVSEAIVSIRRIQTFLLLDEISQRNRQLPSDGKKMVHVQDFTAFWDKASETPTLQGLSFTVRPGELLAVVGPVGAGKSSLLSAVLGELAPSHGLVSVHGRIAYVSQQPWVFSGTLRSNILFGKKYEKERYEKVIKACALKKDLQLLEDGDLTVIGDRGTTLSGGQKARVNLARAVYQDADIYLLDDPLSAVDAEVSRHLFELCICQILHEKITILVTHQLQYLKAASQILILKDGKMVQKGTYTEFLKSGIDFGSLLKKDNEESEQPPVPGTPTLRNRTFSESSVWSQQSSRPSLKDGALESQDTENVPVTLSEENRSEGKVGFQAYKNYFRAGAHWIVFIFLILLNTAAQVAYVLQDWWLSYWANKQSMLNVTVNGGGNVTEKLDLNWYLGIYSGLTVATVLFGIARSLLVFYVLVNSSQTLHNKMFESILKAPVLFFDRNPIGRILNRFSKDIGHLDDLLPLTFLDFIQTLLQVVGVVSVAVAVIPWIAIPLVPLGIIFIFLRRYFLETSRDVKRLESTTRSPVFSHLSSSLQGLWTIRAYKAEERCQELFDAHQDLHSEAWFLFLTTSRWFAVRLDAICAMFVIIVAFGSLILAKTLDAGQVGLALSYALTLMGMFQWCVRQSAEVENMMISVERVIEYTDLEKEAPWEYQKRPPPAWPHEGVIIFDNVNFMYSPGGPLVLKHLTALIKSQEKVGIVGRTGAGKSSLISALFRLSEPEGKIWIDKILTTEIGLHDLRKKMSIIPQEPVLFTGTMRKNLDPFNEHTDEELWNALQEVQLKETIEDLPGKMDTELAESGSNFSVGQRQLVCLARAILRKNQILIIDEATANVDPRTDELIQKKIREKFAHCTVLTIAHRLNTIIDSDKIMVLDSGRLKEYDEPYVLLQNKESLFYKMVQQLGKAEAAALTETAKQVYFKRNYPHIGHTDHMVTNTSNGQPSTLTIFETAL

[2] = biological target: T1, ATP-binding cassette sub-family C member 4; test: TP_TRANSPORTER: inhibition of DHEAS in membrane vesicles from MRP4-expressing Sf9 cells; assay type: functional, cell membranes, Membrane vesicle
[3] = biological target: T1, ATP-binding cassette sub-family C member 4; test: TP_TRANSPORTER: inhibition of E217betaG uptake in membrane vesicles from MRP4-expressing Sf9 cells; assay type: functional, cell membranes, Membrane vesicle

SMILES	IC50 [1] [µM]	IC50 [2] [µM]	IC50 [3] [µM]
C[C@H](CCC(=O)NCC(=O)O)[C@H]1CC[C@H]2[C@@H]3CC[C@@H]4C[C@H](OS(=O)(=O)O)CC[C@]4(C)[C@H]3CC[C@]12C	10		
C[C@]12CC[C@@H]3c4ccc(O[C@@H]5O[C@H](C(=O)O)[C@@H](O)[C@H](O)[C@H]5O)cc4CC[C@H]3[C@@H]1CC[C@@H]2O		80	120
C[C@H](CCC(=O)NCCS(=O)(=O)O)C1CC[C@H]2[C@@H]3CC[C@@H]4C[C@H](OS(=O)(=O)O)CC[C@]4(C)[C@H]3CC[C@]12C (stereo partly drawn)	10		
C[C@]12CC[C@H](O[C@@H]3O[C@H](C(=O)O)[C@@H](O)[C@H](O)[C@H]3O)CC1=CC[C@@H]1[C@@H]2CC[C@]2(C)C(=O)CC[C@@H]12		80	80
C[C@H](CCC(=O)O)[C@H]1CC[C@H]2[C@@H]3CC[C@@H]4C[C@H](OS(=O)(=O)O)CC[C@]4(C)[C@H]3CC[C@]12C	10		
C[C@]12CC[C@@H]3c4ccc(OS(=O)(=O)O)cc4CC[C@H]3[C@@H]1CC[C@H]2O		70	50
C[C@]12CC[C@@H]3c4ccc(O)cc4CC[C@H]3[C@@H]1CC[C@@H]2O[C@@H]1O[C@H](C(=O)O)[C@@H](O)[C@H](O)[C@H]1O [ESTRADIOL 17B GLUCURONIDE]		30	
C[C@]12CC[C@@H]3c4ccc(OS(=O)(=O)O)cc4CC[C@H]3[C@@H]1CC[C@@H]2OS(=O)(=O)O [ESTRADIOL DISULFATE]		0.2	2
C[C@]12CC[C@@H]3c4ccc(OS(=O)(=O)O)cc4CC[C@H]3[C@@H]1CCC2=O [ESTRONE SULFURIC ACID]		95	45
C[C@H](CCC(=O)NCC(=O)O)[C@H]1CC[C@H]2[C@@H]3[C@H](O)C[C@@H]4C[C@H](O)CC[C@]4(C)[C@H]3C[C@H](O)[C@]12C [GLYCOCHOLIC ACID]	400		
C[C@H](CCC(=O)NCCS(=O)(=O)O)[C@H]1CC[C@H]2[C@@H]3[C@H](O)C[C@@H]4C[C@H](O)CC[C@]4(C)[C@H]3CC[C@]12C [TAUROCHENODEOXYCHOLATE]	55		
C[C@H](CCC(=O)NCCS(=O)(=O)O)[C@H]1CC[C@H]2[C@@H]3CC[C@@H]4C[C@H](O)CC[C@]4(C)[C@H]3C[C@H](O)[C@]12C [TAURODEOXYCHOLIC ACID]	60		
C[C@H](CCC(=O)NCCS(=O)(=O)O)[C@H]1CC[C@H]2[C@@H]3CC[C@@H]4C[C@H](O)CC[C@]4(C)[C@H]3CC[C@]12C [TAUROLITHOCHOLIC ACID]	20		
